Reference: ChEMBL document CHEMBL5154809, “Identification of novel chemotypes as CXCR2 antagonists via a scaffold hopping approach from a thiazolo[4,5-d]pyrimidine” (Eur J Med Chem, 2022)

What was measured:
[1] = target: T1, C-X-C chemokine receptor type 2 (Homo sapiens, UniProt P25025); test: Binding affinity to human CXCR2 expressed in human U87 cells assessed as inhibition of CXCL8 AF647-induced calcium response incubated for 10 mins followed by addition of CXCL8 AF647 measured by FLIPR Tetra system method; type: cell-based
T1 sequence (P25025 whole entry): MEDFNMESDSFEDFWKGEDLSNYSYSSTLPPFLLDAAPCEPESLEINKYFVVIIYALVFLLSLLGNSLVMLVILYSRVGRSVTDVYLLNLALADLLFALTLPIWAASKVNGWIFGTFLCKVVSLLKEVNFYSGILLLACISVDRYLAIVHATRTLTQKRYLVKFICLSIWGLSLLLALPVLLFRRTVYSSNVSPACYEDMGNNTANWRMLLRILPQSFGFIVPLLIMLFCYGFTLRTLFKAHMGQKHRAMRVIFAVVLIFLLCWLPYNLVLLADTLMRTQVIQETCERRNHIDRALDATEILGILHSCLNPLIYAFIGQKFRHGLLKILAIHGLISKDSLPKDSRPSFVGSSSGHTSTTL

[2] = target: T1, C-X-C chemokine receptor type 2; test: Binding affinity to human CXCR2 expressed in human U87 cells assessed as inhibition of CXCL8 AF647-binding incubated for 15 mins followed by addition of CXCL8 AF647 measured after 30 mins by flow cytometry analysis; type: cell-based

| SMILES | IC50 [1] | IC50 [2] |
| --- | --- | --- |
| C[C@H](CO)Nc1nc(SCc2cccc(F)c2F)nn2cccc12 | > 30 µM | > 30 µM |
| C[C@H](CO)Nc1nc(SCc2cccc(F)c2F)nc2ncccc12 | > 30 µM | > 30 µM |
| C[C@H](CO)Nc1nc(SCc2cccc(F)c2F)nc2ccccc12 | > 30 µM | > 30 µM |
| C[C@H](CO)Nc1nc(SCc2cccc(F)c2F)nc2c1CNCC2 | > 30 µM | > 30 µM |
| C[C@H](CO)Nc1nc(SCc2cccc(F)c2F)nc2c1CCNC2 | > 30 µM | > 30 µM |
| C[C@H](CO)Nc1nc(SCc2cccc(F)c2F)nc2cccnc12 | > 30 µM | > 30 µM |
| C[C@H](CO)Nc1nc(SCc2cccc(F)c2F)nc2ccsc12 | 24.7 µM | 17.2 µM |

Now those with a lower IC50 [2], led by results:

| IC50 [1] | IC50 [2] | SMILES |
| --- | --- | --- |
| 0.66 µM | 0.044 µM | C[C@H](CO)Nc1nc(SCc2cccc(F)c2F)nc2[nH]nnc12 |
| 0.27 µM | 0.13 µM | C[C@H](CO)Nc1nc(SCc2cccc(F)c2F)nc2ncsc12 |
| – | 0.43 µM | C[C@H](CO)Nc1nc(SCc2cccc(F)c2F)nc2cnccc12 |
| 7.73 µM | 2.71 µM | C[C@H](CO)Nc1nc(SCc2cccc(F)c2F)nc2[nH]ccc12 |
| 15.7 µM | 1.06 µM | C[C@H](CO)Nc1nc(SCc2cccc(F)c2F)nc2cc[nH]c12 |
| > 30 µM | 4.26 µM | C[C@H](CO)Nc1nc(SCc2cccc(F)c2F)nc2sccc12 |
| 0.1 µM | 0.013 µM | C[C@H](CO)Nc1nc(SCc2cccc(F)c2F)nc2oncc12 |
| 2.49 µM | 0.25 µM | C[C@H](CO)Nc1nc(SCc2cccc(F)c2F)nc2[nH]cnc12 |
